Experimental data published in US20140011700A1 (Bristol-Myers Squibb Company, published 2014).

B1: biotinylated 2'-O-methylated RNA oligonucleotide (ssRNA)
RNA: UAGAAACAAGGGUGUUUUUUCAGAUCUAUUAAACUUCACCCUGCUUUUGCU
modifications: 2'-OMe (stated as 2-O-methylated, positions not specified)

Legend:
H1N1 (A/CA/07/2009) = type: cell-based
[1] = tested on: H1N1 (A/SolomonIslands/3/2006); type: cell-based; settings: read-out: A/Solomon-Islands/3/2006 (EC50)
[2] = tested on: H3N2 (A/Brisbane/10/2007); type: cell-based
[3] = target: NP (nucleoprotein, A/WSN/33) (Influenza A virus, UniProt P15682)
A/WSN/33 = type: cell-based
[4] = target: Influenza A nucleoprotein (NP) (Influenza A virus (A/WSN/33, H1N1), UniProt P15682 P15682:8-498); assay: SPR; settings: tags: N-terminal hexahistidine (pET28A), expressed in E. coli Rosetta II (DE3); label: 5'-biotin

Molecule	EC50 (H1N1 (A/CA/07/2009)) [nM]	EC50 [1] [nM]	EC50 [2] [nM]	% Pd (polydispersity) [3] [%]	Rh (nm), hydrodynamic radius [3] [nm]	EC50 (A/WSN/33) [nM]	Kd [4] [nM]
COc1ccccc1-c1noc(C)c1C(=O)N1CCN(c2ccc([N+](=O)[O-])cc2Cl)CC1 [Compound B]	> 20000	660 ± 220	7310 ± 1800	10.2	8.2 ± 0.3		
Cc1cc(Br)cnc1N1CCN(C(=O)c2c(-c3ccccc3Cl)noc2C)CC1 [Compound D]	> 20000	2800 ± 530	> 20000	13.5	8.9 ± 0.2	1020 ± 1800	
B1							11.2
